In patent publication US12358948B2, “Neurotensinergic agonists and methods of using same preventing or treating pain” (priority 2019, dated 2025):
Read-outs that look alike come from different tables or passages of the source. *1 amine or outer side, *2 acyl side, *3 side chain or, on linkers, in order; H or OH if unused. Where a SMILES comes first, the peptide text is derived from it. Bridges are numbered along the chain shown (N, C = ends). [ ]: non-standard residue; d: D form. ξ: configuration not given here. ξαMeNle(6-ylidene) = CC(CCCC=[*:3])(N[*:1])C(=O)[*:2]; Bpa = N[C@@H](Cc1ccc(C(=O)c2ccccc2)cc1)C(=O)O; Phe(4-Br) = N[C@@H](Cc1ccc(Br)cc1)C(=O)O; Phe(4-Cl) = N[C@@H](Cc1ccc(Cl)cc1)C(=O)O; Phe(3-I) = N[C@@H](Cc1cccc(I)c1)C(=O)O; hTyr = N[C@@H](CCc1ccc(O)cc1)C(=O)O; AllylGly = C=CC[C@H](N)C(=O)O; hLys = NCCCCC[C@H](N)C(=O)O; Dab = NCC[C@H](N)C(=O)O; Dap = NC[C@H](N)C(=O)O

Columns and labels:
[1] = target: T1, hNTS2 receptor (Homo sapiens, UniProt O95665); assay: Competitive radioligand binding assay on the hNTS2 receptor; details: for IC50: membranes of 1321N1 cells expressing hNTS2; for Selectivity: ratio IC50 for NTS1 : IC50 for NTS2
T1 construct: membranes prepared from them
T1 sequence (O95665 whole entry): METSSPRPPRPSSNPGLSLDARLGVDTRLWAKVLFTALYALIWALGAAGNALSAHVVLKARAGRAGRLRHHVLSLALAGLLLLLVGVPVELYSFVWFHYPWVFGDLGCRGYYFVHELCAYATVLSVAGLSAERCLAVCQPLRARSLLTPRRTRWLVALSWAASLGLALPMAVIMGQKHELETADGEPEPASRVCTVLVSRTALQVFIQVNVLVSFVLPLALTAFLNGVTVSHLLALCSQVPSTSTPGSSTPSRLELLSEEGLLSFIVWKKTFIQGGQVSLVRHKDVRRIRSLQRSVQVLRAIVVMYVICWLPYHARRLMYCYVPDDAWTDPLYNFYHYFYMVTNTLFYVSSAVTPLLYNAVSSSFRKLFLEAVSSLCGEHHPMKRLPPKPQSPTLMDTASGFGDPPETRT
Description: (§1) CHO-K1 (Chinese Hamster Ovary) cells stably expressing hNTS1 and 1321N1 cells stably expressing hNTS2 (ES-690-C and ES-691-C from PerkinElmer, Montréal, Canada) were cultured respectively in Ham's F12 and in DMEM culture media. Culture media were supplemented with 10% FBS, 100 U/mL penicillin, 100 μg/mL streptomycin, 20 mM HEPES, and 0.4 mg/mL G418 at 37° C. in a humidified chamber at 5% CO2.
(§2) The cells expressing hNTS1 were frozen when they reached 80% confluency. They were scrapped off the dish with 10 mM Tris buffer, 1 mM EDTA, pH 7.5 and centrifuged at 15,000 g for 5 min at 4° C. The pellet was then re-suspended in 1 mL binding buffer. The cells expressing hNTS2 were also frozen when they reached 80% confluency. They were scraped off the dish with PBS, 0.5 mM EDTA, pH 7.5 and sonicated for 5 minutes (pulse 30 s/5 s off, amplitude 40%). They were ultracentrifuged at 100 000 g for 60 minutes at 4° C. The pellet was re-suspended in 1 mL freezing buffer (PBS, glycerol, 0.5 mM EDTA), sonicated for 1 minute (pulse 30 s/5 s off, amplitude 50%) and further diluted in binding buffer. Competitive radioligand binding experiments were performed by incubating 15 μg of cell membranes expressing the hNTS1 receptor with […] of ^125I-[Tyr^3]-NT (2200 Ci/mmol) or 50 μg of cell membranes expressing the hNTS2 receptor with […] of ^125I-[Tyr^3]-NT in binding buffer (50 mM Tris-HCl, pH 7.5, 0.2% BSA) in the presence of increasing concentrations of analogues ranging from 10^−11 to 10^−4 M for 60 min at 25° C. After incubation, the binding reaction mixture was transferred in PEI-coated 96-well filter plates (glass fiber filters GF/B, Millipore, Billerica, MA). Reaction was terminated by filtration, and plates were washed three times with 200 μL ice-cold binding buffer. Glass filters were then counted using a γ-counter (2470 Wizard2, PerkinElmer, Mississauga, Ontario, Canada). Non-specific binding was measured in the presence of 10^−5 M unlabeled NT (8-13) and represented less than 5% of total binding. IC50 values were determined from competition curves as the unlabeled ligand concentration inhibiting 50% of ^125I-[Tyr^3]-NT-specific binding.
(§3) Competitive radioligand binding data were plotted using the nonlinear regression One-site-Fit Log(IC50) and represented the mean±SEM of at least three independent experiments in triplicates.

[2] = target: T2, hNTS1 receptor (Homo sapiens, UniProt P30989); assay: Competitive radioligand binding assay on the hNTS1 receptor; details: membranes of CHO-K1 cells expressing hNTS1
T2 construct: membranes prepared from them
T2 sequence (P30989 whole entry): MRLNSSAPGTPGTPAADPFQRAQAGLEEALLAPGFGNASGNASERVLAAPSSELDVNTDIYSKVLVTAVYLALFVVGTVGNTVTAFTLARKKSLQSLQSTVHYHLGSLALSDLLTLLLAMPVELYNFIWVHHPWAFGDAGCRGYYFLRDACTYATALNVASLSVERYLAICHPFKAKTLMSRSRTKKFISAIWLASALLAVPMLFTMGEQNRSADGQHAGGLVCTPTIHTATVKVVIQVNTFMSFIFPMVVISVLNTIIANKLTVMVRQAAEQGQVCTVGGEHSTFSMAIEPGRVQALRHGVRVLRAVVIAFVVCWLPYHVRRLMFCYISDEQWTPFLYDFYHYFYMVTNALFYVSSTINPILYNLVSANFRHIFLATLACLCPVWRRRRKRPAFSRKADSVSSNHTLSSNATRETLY
Description: as §1, §2, §3

[3] = displacement of 125I-[Tyr3]-NT, read-out: IC50 NTS2 (converted)
[4] = displacement of 125I-[Tyr3]-NT, read-out: IC50 NTS1

Row | Structure (SMILES) | IC50 [1, 3] [µM] | Selectivity [1] | IC50 [2, 4] [µM] | IC50 ([1]; IC50 NTS2, displacement of 125I-[Tyr3]-NT) [µM] | IC50 ([2]; IC50 NTS1, displacement of 125I-[Tyr3]-NT) [µM]
1 | CC(C)C[C@H](NC(=O)[C@H](Cc1cccc(I)c1)NC(=O)[C@@H]1CC=CC[C@H](N)C(=O)N[C@@H](CCCCN)C(=O)N[C@@H](CCCCN)C(=O)N1)C(=O)O [compound 117, c[G(All)KKG(All)]F(3-iodo)L] (H-[AllylGly]KK[AllylGly][Phe(3-I)]L-OH; staple 1-4) | 0.0323 | >3097 | > 100 |  | 
2 | CC(C)C[C@H](NC(=O)[C@H](Cc1ccc(Cl)cc1)NC(=O)[C@@H]1CC=CC[C@H](N)C(=O)N[C@@H](CCCCN)C(=O)N[C@@H](CCCCN)C(=O)N1)C(=O)O [compound 114, c[G(All)KKG(All)]F(4-chloro)L] (H-[AllylGly]KK[AllylGly][Phe(4-Cl)]L-OH; staple 1-4) | 0.0406 | >2466 | > 100 |  | 
3 | CC(C)C[C@H](NC(=O)[C@H](Cc1ccc(O)cc1)NC(=O)[C@@H]1CCNC(=O)C[C@H](N)C(=O)N[C@@H](CCCCN)C(=O)N[C@@H](CCCCN)C(=O)N1)C(=O)O [compound 105, c[DKKDab]YL] (H-DKK[Dab]YL-OH; lactam 1-4) | 1.45 | >67.0 | > 100 |  | 
4 | CC(C)C[C@H](NC(=O)[C@H](Cc1ccc(O)cc1)NC(=O)[C@@H]1CC=CC[C@H](N)C(=O)N[C@@H](CCN)C(=O)N[C@@H](CCCCN)C(=O)N1)C(=O)O [compound 80, c[G(All)DabKG(All)]YL] (H-[AllylGly][Dab]K[AllylGly]YL-OH; staple 1-4) | 0.137 | >729 | > 100 |  | 
5 | CC(C)C[C@H](NC(=O)[C@H](Cc1ccc(Br)cc1)NC(=O)C1(C)CCCC=CC[C@H](N)C(=O)N[C@@H](CCCCN)C(=O)N[C@@H](CCCCN)C(=O)N1)C(=O)O (stereo partly drawn) [compound 130, c[G(All)KKG(alpha-Me-(4-pentenyl))]F(4-bromo)L] (H-[AllylGly]KK[ξαMeNle(6-ylidene)][Phe(4-Br)]L-OH; staple 1-4) | 0.0102 | 9843 | > 100 |  | 
6 | CC(C)C[C@H](NC(=O)[C@H](CCc1ccc(O)cc1)NC(=O)[C@@H]1CC=CC[C@H](N)C(=O)N[C@@H](CCCCN)C(=O)N[C@@H](CCCCN)C(=O)N1)C(=O)O [compound 126, c[G(All)KKG(All)]homoYL] (H-[AllylGly]KK[AllylGly][hTyr]L-OH; staple 1-4) | 0.0817 | 1224 | > 100 |  | 
7 | CC(C)C[C@H](NC(=O)[C@H](Cc1ccc(O)cc1)NC(=O)[C@@H]1CC=CC[C@H](N)C(=O)N[C@@H](CCCCN)C(=O)N[C@@H](CCCCCN)C(=O)N1)C(=O)O [compound 149, c[G(All)KhomolysineG(All)]YL] (H-[AllylGly]K[hLys][AllylGly]YL-OH; staple 1-4) | 0.214 | 468 | > 100 |  | 
8 | CC(C)C[C@H](NC(=O)[C@H](Cc1ccc(O)cc1)NC(=O)[C@@H]1CC=CC[C@H](N)C(=O)N[C@@H](CN)C(=O)N[C@@H](CCCCN)C(=O)N1)C(=O)O [compound 81, c[G(All)DapKG(All)]YL] (H-[AllylGly][Dap]K[AllylGly]YL-OH; staple 1-4) | 0.18 | >557.2 | > 100 |  | 
9 | CC(C)C[C@H](NC(=O)[C@H](Cc1ccc(O)cc1)NC(=O)[C@@H]1CC(=O)NCC[C@H](N)C(=O)N[C@@H](CCCCN)C(=O)N[C@@H](CCCCN)C(=O)N1)C(=O)O [compound 95, c[DabKKD]YL] (H-[Dab]KKDYL-OH; lactam 1-4) | 8.81 | >11.4 | > 100 |  | 
10 | CC(C)C[C@H](NC(=O)[C@H](Cc1ccc(C(=O)c2ccccc2)cc1)NC(=O)[C@@H]1CC=CC[C@H](N)C(=O)N[C@@H](CCCCN)C(=O)N[C@@H](CCCCN)C(=O)N1)C(=O)O [compound 160, c[G(All)KKG(All)]F (benzoyl)L] (H-[AllylGly]KK[AllylGly][Bpa]L-OH; staple 1-4) |  | 2 |  | 0.115 | > 100
